Source: ChEMBL document CHEMBL5150045, “Structure-Guided Design of Halofuginone Derivatives as ATP-Aided Inhibitors Against Bacterial Prolyl-tRNA Synthetase” (J Med Chem, 2022)
≈ marks a conversion by molar mass, not a printed value.

What was measured:
Homo sapiens = species on record: Homo sapiens; assay: Inhibition of human ProRS expressed in Escherichia coli assessed as change in melting temperature in presence of AMPPNP at 0.5 mM by fluorescence-based thermal shift assay
Staphylococcus aureus [1] = assay: Antibacterial activity against Staphylococcus aureus ATCC25923 assessed as prevention of visible growth by broth microdilution method; type: functional
Staphylococcus aureus [2] = assay: Antibacterial activity against Staphylococcus aureus ATCC29213 assessed as prevention of visible growth by broth microdilution method; type: functional
Staphylococcus aureus [3] = assay: Inhibition of methicillin-resistant Staphylococcus aureus ProRS expressed in Escherichia coli assessed as change in melting temperature in presence of AMPPNP at 0.5 mM by fluorescence-based thermal shift assay
[4] = Inhibition of methicillin-resistant Staphylococcus aureus ProRS expressed in Escherichia coli assessed as generation of inorganic monophosphate by pre-transfer editing-based experiment
Shigella flexneri = assay: Antibacterial activity against Shigella flexneri CMCC51572 assessed as prevention of visible growth by broth microdilution method; type: functional
Salmonella typhi = assay: Antibacterial activity against Salmonella typhi CMCC50094 assessed as prevention of visible growth by broth microdilution method; type: functional, Salmonella enterica subsp. enterica serovar Typhi; details: Salmonella enterica
Escherichia coli [5] = assay: Antibacterial activity against Escherichia coli ATCC25922 assessed as prevention of visible growth by broth microdilution method; type: functional
Staphylococcus aureus [6] = assay: Antibacterial activity against methicillin-resistant Staphylococcus aureus 252 assessed as prevention of visible growth by broth microdilution method; type: functional
Staphylococcus aureus [7] = assay: Antibacterial activity against methicillin-resistant Staphylococcus aureus R3708 assessed as prevention of visible growth by broth microdilution method; type: functional
Escherichia coli [8] = assay: Resistance development in Escherichia coli ATCC25922 assessed as fold increase in resistance after 15 days serial passage upto 256 ug/ml; type: functional; details: dose <= 256 µg/ml; time 15 day
Staphylococcus aureus [9] = assay: Bactericidal activity against methicillin-resistant Staphylococcus aureus 252 assessed as bacterial killing measured after 24 hrs incubation by CLSI method; type: functional; details: read-out: MBC99.9
Staphylococcus aureus [10] = assay: Ratio of MBC99.9 for methicillin-resistant Staphylococcus aureus 252 to MIC for methicillin-resistant Staphylococcus aureus 252; type: functional
Escherichia coli [11] = assay: Ratio of MBC99.9 for Escherichia coli ATCC25922 to MIC for Escherichia coli ATCC25922; type: functional
Staphylococcus aureus [12] = assay: Resistance development in methicillin-resistant Staphylococcus aureus 252 assessed as fold increase in resistance after 15 days serial passage upto 256 ug/ml; type: functional; details: dose <= 256 µg/ml; time 15 day

| Structure (SMILES) | ΔTm (Homo sapiens) | MIC (Staphylococcus aureus [1]) | MIC (Staphylococcus aureus [2]) | ΔTm (Staphylococcus aureus [3]) | IC50 [4] | MIC (Shigella flexneri) | MIC (Salmonella typhi) | MIC (Escherichia coli [5]) | MIC (Staphylococcus aureus [6]) | MIC (Staphylococcus aureus [7]) | fold change (FC) (Escherichia coli [8]) | MBC (Staphylococcus aureus [9]) | Ratio (Staphylococcus aureus [10]) | Ratio (Escherichia coli [11]) | fold change (FC) (Staphylococcus aureus [12]) |
| --- | --- | --- | --- | --- | --- | --- | --- | --- | --- | --- | --- | --- | --- | --- | --- |
| O=c1c2cc(Cl)c(Br)cc2ncn1CC(O)C[C@@H]1CCCCN1 (stereo not given in full) | 11.9 °C | > 64 µg/mL | > 64 µg/mL | 0 °C | > 100 µM | > 64 µg/mL | > 64 µg/mL | > 64 µg/mL | > 64 µg/mL | > 64 µg/mL |  |  |  |  |  |
| CC1(C)S[C@@H]2[C@H](NC(=O)[C@H](N)c3ccccc3)C(=O)N2[C@H]1C(=O)O [AMPICILLIN] |  |  |  |  |  | 2 µg/mL (≈ 5.72 µM) | 2 µg/mL (≈ 5.72 µM) |  |  |  |  |  |  |  |  |
| O=C(O)c1cn(C2CC2)c2cc(N3CCNCC3)c(F)cc2c1=O [CIPROFLOXACIN] |  |  |  |  |  | 2 µg/mL (≈ 6.04 µM) |  |  |  |  | 16 |  |  |  |  |
| O=C(C[C@@H]1CCCCN1)Cn1cnc2cc(F)c(F)cc2c1=O | 19.2 °C | 32 µg/mL (≈ 99.6 µM) | 16 µg/mL (≈ 49.8 µM) | 7.3 °C | 0.63 µM | 4 µg/mL (≈ 12.4 µM) | 16 µg/mL (≈ 49.8 µM) | 4 µg/mL (≈ 12.4 µM) | 16 µg/mL (≈ 49.8 µM) | 32 µg/mL (≈ 99.6 µM) |  | 128 µg/mL (≈ 398 µM) | 8 | 16 |  |
| O=C(C[C@@H]1CCCCN1)Cn1cnc2cc3ccccc3cc2c1=O | 7.9 °C | > 64 µg/mL | > 64 µg/mL | 0 °C | > 100 µM | > 64 µg/mL | > 64 µg/mL | > 64 µg/mL | > 64 µg/mL | > 64 µg/mL |  |  |  |  |  |
| COc1cc2ncn(CC(=O)C[C@@H]3CCCCN3)c(=O)c2cc1OC | 4.2 °C | > 64 µg/mL | > 64 µg/mL | 0 °C | > 100 µM | > 64 µg/mL | > 64 µg/mL | > 64 µg/mL | > 64 µg/mL | > 64 µg/mL |  |  |  |  |  |
| Cc1cc2ncn(CC(=O)C[C@@H]3CCCCN3)c(=O)c2cc1C | 13.9 °C | > 64 µg/mL | > 64 µg/mL | 1.3 °C | 17.6 µM | > 64 µg/mL | > 64 µg/mL | > 64 µg/mL | > 64 µg/mL | > 64 µg/mL |  |  |  |  |  |
| O=C(C[C@@H]1CCCCN1)Cn1cnc2cc(Cl)c(Cl)cc2c1=O | 18.9 °C | 16 µg/mL (≈ 45.2 µM) | 8 µg/mL (≈ 22.6 µM) | 7.9 °C | 0.51 µM | 16 µg/mL (≈ 45.2 µM) | 32 µg/mL (≈ 90.3 µM) | 16 µg/mL (≈ 45.2 µM) | 4 µg/mL (≈ 11.3 µM) | 4 µg/mL (≈ 11.3 µM) |  | 64 µg/mL (≈ 181 µM) | 16 |  |  |
| O=C(C[C@@H]1CCCCN1)Cn1cnc2cccc(Cl)c2c1=O | 15.9 °C | > 64 µg/mL | > 64 µg/mL | 3 °C | 5.59 µM | > 64 µg/mL | > 64 µg/mL | > 64 µg/mL | > 64 µg/mL | > 64 µg/mL |  |  |  |  |  |
| O=C(C[C@@H]1CCCCN1)Cn1cnc2cc(Br)c(Cl)cc2c1=O | 17.9 °C | 32 µg/mL (≈ 80.3 µM) | 16 µg/mL (≈ 40.1 µM) | 6.2 °C | 0.61 µM | 16 µg/mL (≈ 40.1 µM) | 32 µg/mL (≈ 80.3 µM) | 32 µg/mL (≈ 80.3 µM) | 16 µg/mL (≈ 40.1 µM) | 16 µg/mL (≈ 40.1 µM) |  |  |  |  |  |
| O=C(C[C@@H]1CCCCN1)Cn1cnc2cc(C(F)(F)F)ccc2c1=O | 16.9 °C | > 64 µg/mL | > 64 µg/mL | 3.4 °C | 1.28 µM | > 64 µg/mL | > 64 µg/mL | > 64 µg/mL | > 64 µg/mL | > 64 µg/mL |  |  |  |  |  |
| O=C(C[C@@H]1CCCCN1)Cn1cnc2ccc(C(F)(F)F)cc2c1=O | 9.9 °C | 64 µg/mL (≈ 181 µM) | 32 µg/mL (≈ 90.6 µM) | 1.2 °C | > 100 µM | 64 µg/mL (≈ 181 µM) | 64 µg/mL (≈ 181 µM) | 64 µg/mL (≈ 181 µM) | 64 µg/mL (≈ 181 µM) | 64 µg/mL (≈ 181 µM) |  |  |  |  |  |
| CC(C)(C)c1ccc2c(=O)n(CC(=O)C[C@@H]3CCCCN3)cnc2c1 | 3.9 °C | > 64 µg/mL | > 64 µg/mL | 0 °C | > 100 µM | > 64 µg/mL | > 64 µg/mL | > 64 µg/mL | > 64 µg/mL | > 64 µg/mL |  |  |  |  |  |
| O=C(C[C@@H]1CCCCN1)Cn1cnc2cc(F)ccc2c1=O | 18.1 °C | 32 µg/mL (≈ 105 µM) | 32 µg/mL (≈ 105 µM) | 6.9 °C | 1.71 µM | 8 µg/mL (≈ 26.4 µM) | 32 µg/mL (≈ 105 µM) | 16 µg/mL (≈ 52.7 µM) | 32 µg/mL (≈ 105 µM) | 32 µg/mL (≈ 105 µM) |  |  |  |  |  |
| O=c1c2ccccc2ncn1CCC[C@@H]1CCCCN1 | 4.2 °C | > 64 µg/mL | > 64 µg/mL | 0 °C | > 100 µM | > 64 µg/mL | > 64 µg/mL | > 64 µg/mL | > 64 µg/mL | > 64 µg/mL |  |  |  |  |  |
| O=C(C[C@@H]1CCCCN1)Cn1cnc2cc3c(cc2c1=O)OCO3 | 15.9 °C | > 64 µg/mL | > 64 µg/mL | 2.1 °C | 36.3 µM | > 64 µg/mL | > 64 µg/mL | > 64 µg/mL | > 64 µg/mL | > 64 µg/mL |  |  |  |  |  |
| C[C@H]1COc2c(N3CCN(C)CC3)c(F)cc3c(=O)c(C(=O)O)cn1c23.C[C@H]1COc2c(N3CCN(C)CC3)c(F)cc3c(=O)c(C(=O)O)cn1c23.O [LEVOFLOXACIN] |  |  |  |  |  |  |  |  |  |  |  |  |  |  | 64 |
| O=C(C[C@@H]1CCCCN1)Cn1cnc2nccnc2c1=O | 4.9 °C | > 64 µg/mL | > 64 µg/mL | 0 °C | > 100 µM | > 64 µg/mL | > 64 µg/mL | > 64 µg/mL | > 64 µg/mL | > 64 µg/mL |  |  |  |  |  |
| O=C(C[C@@H]1CCCCN1)Cn1cnc2ccccc2c1=O | 15.7 °C | 32 µg/mL (≈ 112 µM) | 32 µg/mL (≈ 112 µM) | 1.3 °C | 18.3 µM | 32 µg/mL (≈ 112 µM) | 64 µg/mL (≈ 224 µM) | 64 µg/mL (≈ 224 µM) | 16 µg/mL (≈ 56.1 µM) | 32 µg/mL (≈ 112 µM) |  |  |  |  |  |
| O=c1c2cc(Cl)c(Cl)cc2ncn1CCC[C@@H]1CCCCN1 | 12.4 °C | > 64 µg/mL | > 64 µg/mL | 2 °C | 6.8 µM | > 64 µg/mL | > 64 µg/mL | > 64 µg/mL | > 64 µg/mL | > 64 µg/mL |  |  |  |  |  |
| O=C(C[C@@H]1CCCCN1)Cn1cnc2cccnc2c1=O | 6.9 °C | > 64 µg/mL | > 64 µg/mL | 0 °C | > 100 µM | > 64 µg/mL | > 64 µg/mL | > 64 µg/mL | > 64 µg/mL | > 64 µg/mL |  |  |  |  |  |
| O=c1c2cc(Cl)c(Br)cc2ncn1CCC[C@@H]1CCCCN1 | 15.1 °C | 64 µg/mL (≈ 166 µM) | 32 µg/mL (≈ 83.2 µM) | 2.5 °C | 12.4 µM | 64 µg/mL (≈ 166 µM) | 64 µg/mL (≈ 166 µM) | 64 µg/mL (≈ 166 µM) | 64 µg/mL (≈ 166 µM) | 64 µg/mL (≈ 166 µM) |  |  |  |  |  |
| O=C(C[C@@H]1CCCCN1)Cn1cnc2ccc(F)cc2c1=O | 17.9 °C | 32 µg/mL (≈ 105 µM) | 32 µg/mL (≈ 105 µM) | 6.3 °C | 8.2 µM | 16 µg/mL (≈ 52.7 µM) | 32 µg/mL (≈ 105 µM) | 16 µg/mL (≈ 52.7 µM) | 32 µg/mL (≈ 105 µM) | 32 µg/mL (≈ 105 µM) |  |  |  |  |  |
